How the values were obtained:
Assay type in all cases: cell-based
[1] = molecular target: T1, LAT1 (System L1 catalytic subunit) (Mus musculus, UniProt Q9Z127); experiment: inhibition of […] [3H]phenylalanine uptake at […]; conditions: read-out: % inhibition at 10 mM
T1 construct: gene Slc7a5; endogenous System L1 in 3T3-L1 adipocytes; with SLC3A2 (4F2hc/CD98)

[2] = molecular target: T1, LAT1 (System L1 catalytic subunit); experiment: saturable [3H]phenylalanine uptake (Km) in 3T3-L1 cells
[3] = molecular target: T1, LAT1 (System L1 catalytic subunit); experiment: trans stimulation of [3H]phenylalanine efflux; inhibition of phenylalanine and T3 uptake
[4] = molecular target: T1, LAT1 (System L1 catalytic subunit); experiment: inhibition of [3H]phenylalanine uptake ([…] at […]) and of leucine trans stimulated efflux; conditions: read-out: % inhibition at 10 μM

T1 sequence (Q9Z127 whole entry): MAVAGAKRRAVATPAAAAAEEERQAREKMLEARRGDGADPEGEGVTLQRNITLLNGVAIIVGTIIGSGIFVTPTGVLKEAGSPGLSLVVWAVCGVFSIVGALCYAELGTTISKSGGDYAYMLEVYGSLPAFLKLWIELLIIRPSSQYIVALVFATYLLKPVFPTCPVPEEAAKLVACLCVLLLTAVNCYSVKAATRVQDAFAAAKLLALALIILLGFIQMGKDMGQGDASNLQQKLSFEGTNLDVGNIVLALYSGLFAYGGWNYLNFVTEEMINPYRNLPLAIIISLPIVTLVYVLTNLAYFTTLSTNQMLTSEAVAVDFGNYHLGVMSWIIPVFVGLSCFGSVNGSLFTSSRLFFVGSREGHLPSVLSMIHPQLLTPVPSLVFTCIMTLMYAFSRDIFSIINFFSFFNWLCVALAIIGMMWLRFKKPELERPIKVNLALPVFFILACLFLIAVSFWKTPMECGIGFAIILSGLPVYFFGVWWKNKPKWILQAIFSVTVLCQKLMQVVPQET
T1 sequence (P10852 whole entry partner): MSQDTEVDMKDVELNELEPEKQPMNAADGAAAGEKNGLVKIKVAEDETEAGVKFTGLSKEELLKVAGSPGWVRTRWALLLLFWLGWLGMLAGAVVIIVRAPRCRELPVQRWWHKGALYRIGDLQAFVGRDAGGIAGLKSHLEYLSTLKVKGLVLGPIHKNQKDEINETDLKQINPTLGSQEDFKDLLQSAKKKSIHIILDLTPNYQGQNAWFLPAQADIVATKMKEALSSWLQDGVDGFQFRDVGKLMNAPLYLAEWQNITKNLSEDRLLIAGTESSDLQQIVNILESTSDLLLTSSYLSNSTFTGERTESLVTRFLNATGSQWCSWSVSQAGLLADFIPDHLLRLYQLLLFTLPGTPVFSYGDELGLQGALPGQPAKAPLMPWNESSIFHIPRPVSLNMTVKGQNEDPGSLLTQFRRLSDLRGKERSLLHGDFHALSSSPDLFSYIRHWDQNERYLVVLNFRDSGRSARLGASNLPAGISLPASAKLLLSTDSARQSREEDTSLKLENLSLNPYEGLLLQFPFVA

Q: For NC1(C(=O)O)CC2CCC1C2 (stereo not shown) [BCH, 2-aminobicyclo-(2,2,1)-heptane-2-carboxylic acid], which inhibition at 10000 µM [1] is on record?
A: The inhibition at 10000 µM was > 95%.

Q: With N[C@@H](Cc1ccccc1)C(=O)O [L-phenylalanine] as the compound, how does the Km [2] read?
A: The Km was 31 µM.

Q: CC(C)C[C@H](N)C(=O)O [leucine] was tested. Which “trans stimulation of [3H]phenylalanine efflux; inhibition of phenylalanine and T” value [3] did it give?
A: Its value is “Efflux of pre-loaded L-[^3H]phenylalanine from 3T3-L1 adipocytes was trans stimulated in a concentration-dependent manner by external leucine”.

Q: For N[C@@H](Cc1ccc(Oc2cc(I)c(O)c(I)c2)c(I)c1)C(=O)O [rT3, Reverse L-triiodothyronine], which inhibition at 10 µM [4] is on record?
A: The inhibition at 10 µM was 57%.

Reference: paper PMC2957699, “Iodothyronine Interactions with the System L1 Amino Acid Exchanger in 3T3-L1 Adipocytes” (Journal of Thyroid Research, 2010)
